Like-named read-outs stand apart in the source and are kept apart here.
Tests used:
[1] = tested on: DU145 (human prostate cancer cells); experiment: MTT cancer cell growth inhibition; assay type: cell-based; settings: Homo sapiens, DU-145, 72 h, MTT
Summary of the method: (§1)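 GI50 values come from viability measured by MTT reduction at 570 nm. Plated overnight at 1500 cells per well, cultures received drug in three parallel wells across 10^−5–10^−10 M final and were incubated 72 h at 37° C. under 5% CO2 before MTT for 4 h.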

[2] = tested on: HT1080 (human fibrosarcoma cells); experiment: MTT cancer cell growth inhibition; assay type: cell-based; settings: Homo sapiens, HT-1080, 72 h, MTT
Summary of the method: as §1

[3] = tested on: N-87 (human gastric cancer cells); experiment: MTT cancer cell growth inhibition; assay type: cell-based; settings: Homo sapiens, 72 h, MTT, 72 hours incubation, N-87 cells; read-out: GI50 N-87
Summary of the method: as §1

[4] = tested on: HCC827 (human non-small cell lung cancer cells); experiment: MTT cancer cell growth inhibition; assay type: cell-based; settings: Homo sapiens, HCC827, 72 h, MTT, 72 hours incubation, HCC827 cells; read-out: GI50 HCC827
Summary of the method: as §1

[5] = tested on: A549 (human lung cancer cells); experiment: MTT cancer cell growth inhibition; assay type: cell-based; settings: Homo sapiens, A549, 72 h, MTT
Summary of the method: as §1

[6] = tested on: Hela (human cervical cancer cells); experiment: MTT cancer cell growth inhibition; assay type: cell-based; settings: Homo sapiens, HeLa, 72 h, MTT
Summary of the method: as §1

[7] = tested on: SGC-7901 (human gastric cancer cells); experiment: MTT cancer cell growth inhibition; assay type: cell-based; settings: Homo sapiens, SGC-7901, 72 h, MTT, 72 hours incubation, SGC-7901 cells; read-out: GI50 SGC-7901
Summary of the method: as §1

[8] = tested on: BGC-823 (human gastric cancer cells); experiment: MTT cancer cell growth inhibition; assay type: cell-based; settings: Homo sapiens, BGC-823, 72 h, MTT
Summary of the method: as §1

[9] = tested on: U937 (human leukemia cells); experiment: MTT cancer cell growth inhibition; assay type: cell-based; settings: Homo sapiens, U-937, 72 h, MTT
Summary of the method: as §1

[10] = tested on: Bel-7402 (human hepatoma cells); experiment: MTT cancer cell growth inhibition; assay type: cell-based; settings: Homo sapiens, Bel-7402, 72 h, MTT, 72 hours incubation, Bel-7402 cells; read-out: GI50 Bel-7402
Summary of the method: as §1

[11] = tested on: MOLT-4 (human acute lymphoblastic leukemia cells); experiment: MTT cancer cell growth inhibition; assay type: cell-based; settings: Homo sapiens, MOLT-4, 72 h, MTT
Summary of the method: as §1

[12] = tested on: MDA-MB-231 (breast cancer cells); experiment: MTT cancer cell growth inhibition; assay type: cell-based; settings: Homo sapiens, MDA-MB-231, 72 h, read-out: GI50 MDA-MB-231, MTT, 72 hours incubation, MDA-MB-231 cells
Summary of the method: as §1

[13] = tested on: Huh-7 (human hepatoma cells); experiment: MTT cancer cell growth inhibition; assay type: cell-based; settings: Homo sapiens, Huh-7, 72 h, MTT, 72 hours incubation, Huh-7 cells; read-out: GI50 Huh-7
Summary of the method: as §1

[14] = tested on: PANC-1 (Pac-1, human pancreatic cancer cells); experiment: MTT cancer cell growth inhibition; assay type: cell-based; settings: Homo sapiens, PANC-1, 72 h, MTT
Summary of the method: as §1

[15] = tested on: MCF-7 (human breast cancer cells); experiment: MTT cancer cell growth inhibition; assay type: cell-based; settings: Homo sapiens, MCF7, 72 h
Summary of the method: as §1

[16] = biological target: T1, HDAC8 (Homo sapiens, UniProt Q9BY41); experiment: HDAC biochemical activity measurement (fluorescent substrate deacetylation); settings: 37° C. 30 minutes
T1 sequence (Q9BY41 1-377): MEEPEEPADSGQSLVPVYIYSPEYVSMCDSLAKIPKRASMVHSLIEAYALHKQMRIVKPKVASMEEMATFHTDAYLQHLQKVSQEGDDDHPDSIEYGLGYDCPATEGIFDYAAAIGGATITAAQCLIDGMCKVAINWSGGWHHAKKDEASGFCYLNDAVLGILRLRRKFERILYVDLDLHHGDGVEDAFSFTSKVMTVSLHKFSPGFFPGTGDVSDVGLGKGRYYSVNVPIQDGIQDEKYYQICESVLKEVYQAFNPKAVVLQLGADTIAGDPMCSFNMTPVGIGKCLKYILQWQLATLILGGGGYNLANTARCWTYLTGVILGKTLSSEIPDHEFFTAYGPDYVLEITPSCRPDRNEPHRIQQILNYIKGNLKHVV

[17] = biological target: HDAC1 (Homo sapiens, UniProt Q13547); experiment: as above
Sequence of HDAC1 (Q13547 whole entry, species assumed): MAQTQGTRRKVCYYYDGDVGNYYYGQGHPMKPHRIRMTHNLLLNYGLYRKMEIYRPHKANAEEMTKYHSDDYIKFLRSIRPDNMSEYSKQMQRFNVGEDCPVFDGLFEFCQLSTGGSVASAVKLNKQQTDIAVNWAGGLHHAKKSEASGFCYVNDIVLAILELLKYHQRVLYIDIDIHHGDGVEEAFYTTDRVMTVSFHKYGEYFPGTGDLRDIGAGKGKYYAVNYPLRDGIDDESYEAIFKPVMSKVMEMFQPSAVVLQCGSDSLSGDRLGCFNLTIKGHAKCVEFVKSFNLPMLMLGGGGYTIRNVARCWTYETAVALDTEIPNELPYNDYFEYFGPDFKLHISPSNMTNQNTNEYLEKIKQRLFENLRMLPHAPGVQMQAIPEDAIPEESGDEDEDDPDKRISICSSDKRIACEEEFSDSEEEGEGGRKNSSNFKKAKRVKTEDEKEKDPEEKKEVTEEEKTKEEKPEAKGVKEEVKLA
Procedure: The chemical activity of the compound is determined according to the degree of deacetylation inhibition of the HDAC enzyme. This experiment measured the degree of deacetylation related to tumor proliferation and metastasis of HDAC1, HDAC2, HDAC3, HDAC8, HDAC11 five subtypes HDAC enzymes. After the substrate containing an acetylated lysine side chain and HDAC enzyme are labeled with a fluorescent label, the fluorescent substrate is de acetyl. The fluorescent labeled substrate is cleaved by the enzyme, and the fluorescent substance is released, which generates 460 nm emission light under the excitation of 360 nm light.
HDAC substrate was diluted with reaction buffer to 200M (reaction concentration of 20M), the HDAC enzyme was diluted to the appropriate concentration, then added different concentrations of the test compounds and acted at 37° C. 30 minutes, and then added the same volume of 2-times concentration substrate developing solution (developer), incubated at room temperature for 15 minutes.

[18] = biological target: T2, HDAC11 (Homo sapiens, UniProt Q96DB2); experiment: as above;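 also: HDAC11 enzyme acting on an acetyl-lysine fluorogenic substrate, then a developer frees the fluorophore, read at excitation 360 nm and emission 460 nm, IC50 over a compound dilution series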
T2 sequence (Q96DB2 1-347): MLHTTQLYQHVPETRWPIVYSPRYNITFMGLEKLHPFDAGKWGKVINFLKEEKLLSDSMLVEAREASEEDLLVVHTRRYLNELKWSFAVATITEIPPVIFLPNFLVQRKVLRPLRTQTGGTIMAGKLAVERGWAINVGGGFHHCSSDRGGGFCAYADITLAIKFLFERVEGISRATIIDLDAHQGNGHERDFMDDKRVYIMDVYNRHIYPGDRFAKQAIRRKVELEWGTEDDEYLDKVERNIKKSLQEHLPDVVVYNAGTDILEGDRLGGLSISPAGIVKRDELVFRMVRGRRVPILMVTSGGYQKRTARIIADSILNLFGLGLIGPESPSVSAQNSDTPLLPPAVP

[19] = DU145 cells, 72 hours incubation, read-out: GI50 Du1
[20] = HT1080 cells, 72 hours incubation, read-out: GI50 HT1
[21] = A549 cells, 72 hours incubation, read-out: GI50 A54
[22] = Hela cells, 72 hours incubation, read-out: GI50 Hela
[23] = BGC-823 cells, 72 hours incubation, read-out: GI50 BG
[24] = U937 cells, 72 hours incubation, read-out: GI50 U93
[25] = MOLT-4 cells, 72 hours incubation, read-out: GI50 Mol
[26] = PANC-1 cells, 72 hours incubation, read-out: GI50 PAN
[27] = MCF-7 cells, 72 hours incubation, read-out: GI50 MCF
[28] = HDAC1, 37° C. 30 minutes, read-out: IC50 HDAC1
[29] = read-out: IC50 HDAC11, HDAC11, 37° C. 30 minutes
[30] = 72 hours incubation, read-out: GI50 Du1
[31] = 72 hours incubation, read-out: GI50 HT1
[32] = 72 hours incubation, read-out: GI50 A54
[33] = 72 hours incubation, read-out: GI50 Hela
[34] = 72 hours incubation, read-out: GI50 BG
[35] = 72 hours incubation, read-out: GI50 U93
[36] = 72 hours incubation, read-out: GI50 Mol
[37] = 72 hours incubation, read-out: GI50 PAN
[38] = 72 hours incubation, read-out: GI50 MCF
[39] = Table 3, column C, read-out: IC50 HDAC1, C (six-membered ring with substituents)
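For IC50 HDAC1 in this document: fluorogenic acetyl-lysine substrate (20 µM) deacetylated by HDAC1, then developer releases fluorophore read at 360 nm excitation and 460 nm emission, inhibitor incubated 30 min at 37 °C.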
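For IC50 HDAC1, C (six-membered ring with substituents) in this document: fluorogenic acetyl-lysine substrate (20 µM) deacetylated by HDAC1, then developer releases fluorophore read at 360 nm excitation and 460 nm emission, inhibitor incubated 30 min at 37 °C.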
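For IC50 HDAC1, D (non-substituent) in this document: fluorogenic acetyl-lysine substrate (20 µM) deacetylated by HDAC1, then developer releases fluorophore read at 360 nm excitation and 460 nm emission, inhibitor incubated 30 min at 37 °C.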
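For IC50 HDAC1, a (compounds of the present invention) in this document: fluorogenic acetyl-lysine substrate (20 µM) deacetylated by HDAC1, then developer releases fluorophore read at 360 nm excitation and 460 nm emission, inhibitor incubated 30 min at 37 °C.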

Compound	GI50 [3] [nM]	GI50 [4] [nM]	GI50 [7] [nM]	GI50 [10] [nM]	GI50 [12] [nM]	GI50 [13] [nM]	IC50 [16] [nM]	IC50 [17, 28] [nM]	IC50 [18, 29] [nM]	GI50 [1, 30] [nM]	GI50 [2, 31] [nM]	GI50 [5, 32] [nM]	GI50 [6, 33] [nM]	GI50 [8, 34] [nM]	GI50 [9, 35] [nM]	GI50 [11, 36] [nM]	GI50 [14, 37] [nM]	GI50 [15, 38] [nM]	IC50 [18] [nM]	also measured
C/C=C1\NC(=O)c2nc(ccc2C)CNC(=O)C[C@@H](/C=C/CCSC(C)=O)OC(=O)[C@H](Cc2ccccc2)NC1=O [Compound 66]	61	34	25	34	38	38	26	41	94	30	30	20	90	60	20	30	30	30	–	IC50 [17, 39]: 41 nM
C/C=C1\NC(=O)c2nc(ccc2F)CNC(=O)C[C@@H](/C=C/CCSC(=O)CCCCCC)OC(=O)[C@H](C(C)C)NC1=O [Compound 33]	61	83	52	83	31	31	59	23	89	10	80	50	80	60	20	30	80	50	–	IC50 [17, 39]: 23 nM
C/C=C1\NC(=O)c2cccc(n2)CNC(=O)C[C@@H](/C=C/CCSC(C)=O)OC(=O)[C@H](Cc2ccc(O)cc2)NC1=O [Compound 18]	44	59	42	95	78	65	73	187	107	420	10800	3800	370	53100	11300	59700	42100	490	–	IC50 ([17]; Table 3, read-out: IC50 HDAC1, D (non-substituent)): 187 nM

Second part, led by results:

GI50 [3] [nM]	GI50 [4] [nM]	GI50 [7] [nM]	GI50 [10] [nM]	GI50 [12] [nM]	GI50 [13] [nM]	IC50 [16] [nM]	IC50 [17, 28] [nM]	IC50 [18, 29] [nM]	GI50 [1, 30] [nM]	GI50 [2, 31] [nM]	GI50 [5, 32] [nM]	GI50 [6, 33] [nM]	GI50 [8, 34] [nM]	GI50 [9, 35] [nM]	GI50 [11, 36] [nM]	GI50 [14, 37] [nM]	GI50 [15, 38] [nM]	IC50 [18] [nM]	Compound	also measured
23	37	25	35	93	53	129	87	187	–	–	–	–	–	–	–	–	–	–	C/C=C1\NC(=O)c2nc(ccc2C)CNC(=O)C[C@@H](/C=C/CCSC(=O)CCCCCCC)OC(=O)[C@H](C(C)C)NC1=O [Compound 243]	GI50 [1, 19]: 130 nM; GI50 ([1]; 72 hours, present invention, read-out: GI50 Du145, a): 130 nM; GI50 [2, 20]: 840 nM; GI50 ([2]; 72 hours, present invention, read-out: GI50 HT1080, a): 840 nM; GI50 [5, 21]: 940 nM; GI50 ([5]; 72 hours, present invention, read-out: GI50 A549, a): 940 nM; GI50 [6, 22]: 230 nM; GI50 ([6]; 72 hours, present invention, read-out: GI50 Hela, a): 230 nM; GI50 [8, 23]: 860 nM; GI50 ([8]; 72 hours, present invention, read-out: GI50 BGC823, a): 860 nM; GI50 ([9]; 72 hours, present invention, read-out: GI50 U937, a): 870 nM; GI50 [9, 24]: 870 nM; GI50 [11, 25]: 490 nM; GI50 ([11]; 72 hours, present invention, read-out: GI50 Molt-4, a): 490 nM; GI50 ([14]; 72 hours, present invention, read-out: GI50 PANC-1, a): 520 nM; GI50 [14, 26]: 520 nM; GI50 ([15]; 72 hours, present invention, read-out: GI50 MCF7, a): 120 nM; GI50 [15, 27]: 120 nM; IC50 ([17]; Table 2, read-out: IC50 HDAC1, a (compounds of the present invention)): < 100 nM
46	38	36	26	37	35	38	61	–	–	–	–	–	–	–	–	–	–	95	C/C=C1\NC(=O)c2cc(SC)cc(n2)CNC(=O)C[C@@H](/C=C/CCSC(=O)CCCCCC)OC(=O)[C@H](C(C)C)NC1=O [Compound 151]	GI50 [1, 19]: 40 nM; GI50 [2, 20]: 90 nM; GI50 [5, 21]: 40 nM; GI50 [6, 22]: 70 nM; GI50 [8, 23]: 40 nM; GI50 [9, 24]: 40 nM; GI50 [11, 25]: 90 nM; GI50 [14, 26]: 40 nM; GI50 [15, 27]: 40 nM
49	51	64	51	34	34	34	74	–	20	50	60	90	40	40	30	50	60	99	C/C=C1\NC(=O)c2nc(ccc2F)CNC(=O)C[C@@H](/C=C/CCSC(=O)CCCCCCC)OC(=O)[C@H](CC)NC1=O [Example 54]	–
96	49	26	57	20	89	19	51	–	40	90	50	30	10	50	30	90	20	83	C/C=C1\NC(=O)c2cc(F)cc(n2)CCNC(=O)C[C@@H](/C=C/CCSC(C)=O)OC(=O)[C@H](C(C)C)NC1=O [Compound 104]	–
